Reference: patent US8852601B2, “Method of stimulating growth and resistance to diseases of aquatic organisms” (Centro de Ingenieria Genetica y Biotecnologia, priority 2002, dated 2014)
Marks after values point to notes of the source that are not given here. Non-standard residues stand in square brackets, D forms with d. No end group written: not given here.

Assays:
serum GH = experiment: Serum GH levels in tilapia injected with GHRP-6 (ELISA); format: in vivo; details: 15 min after intraperitoneal injection, 0.1 μg/gbw
Protocol: (§1) Fifteen tilapias with average weight 71±28 g were used for the experiment. The GHRP-6 was injected with hexapeptide at 0.1 μg/gbw. The liver and blood samples were drawn before the treatment and 15 min, 30 min, 1 h and 6 h after the peptide injection (three animals per group). The serum and liver sample were collected and stored at −70° C. until used for total RNA isolation and Northern blot analysis. A serum sample was also taken before the treatment in all animals.
Serum GH levels were determined by ELISA using two monoclonal antibodies against tilapia GH (Muñoz et al, in preparation).

tilapia IGF mRNA = experiment: Hepatic IGF mRNA levels in tilapia injected with GHRP-6 (Northern blot); format: in vivo; details: 0.1 μg/gbw
Protocol: as §1
Northern blot analysis was used to measure the relative IGF mRNA levels in tilapia injected with the peptide. Total RNA was purified from liver samples as described by Chomczynski and Sacchi (Chomczynski P, Sacchi N. Single step method of RNA isolation by acid guanidium thiocyanate-phenol-chloroform extraction. Anal Biochem 1987; 162:156-59). Twenty μg of RNA were fractionated on 1% formaldehyde agarose gels and transferred to nylon membranes (Hybond N, Amersham UK) and hybridized with a tilapia IGF-I cDNA probe and subsequently rehybridized with a human gliceraldehyde 3 phosphate dehydrogenase cDNA (GAPDH, kindly given by Dr. Bryan Williams, Cleveland Foundation, OH, USA) to normalize the signals. Hybridization signals were quantified by digital image processing of scanned gels with a Hewlett Packard Scanjet Plus scanner. Images were processed with the Bandleader computer program. […]

juvenile tilapia [1] = experiment: Growth promoting activity in juvenile tilapia, intraperitoneal injection; format: in vivo, Oreochromis aureus; details: intraperitoneal 0.1 μg/gbw twice a week, three weeks; P<0.05
Protocol: Juvenile hybrid tilapia (Oreochromis aureus) supplied by the Aquadique Aquaculture Station (Havana, Cuba) were acclimated in a 500 litters tank with re-circulating freshwater at 25° C. with constant photoperiod (14 hours light and 10 hours darkness) and fed with commercially prepared pellets (CENPALAB, Havana, Cuba). Daily rations equivalent to 5% of body weight were administered twice a day until they were used in the experiments.
GHRP-6 (BACHEM, Switzerland) was diluted in PBS and injected twice a week during three weeks at 0.1 μg per gram of fish body weight (gbw). The peptide was administered to a group of eight male tilapia with average body weight of 61±14.3 g and seven male tilapia with average body weight of 61.41±29.67 g were injected with PBS as a control group.
(§2) Body weight in grams was measured weekly. In all the experiments the animals were labeled with microchips (Stoelting Co. Wood Dale, U.S.A.).

juvenile tilapia [2] = experiment: Growth promoting activity in juvenile tilapia, oral intubation (non encapsulated and encapsulated peptide); format: in vivo, Oreochromis aureus
Protocol: as §2
GHRP-6 peptide was diluted in phosphate buffered saline (PBS) and administered through a plastic tube to the pharyngeal cavity to a group of seven male tilapia with average body weight 87.22±14.1 g. PBS was delivered to the control group (n=7, all male tilapia) with average weight 89.22±7.66 g. The treatment was done twice a week during three weeks at 0.1 μg/gbw. Body weight in grams was measured weekly. (FIG. 3)
For the encapsulation of peptide the capsules were obtained as previously reported by Knorr et al., 1988; using chitosan and alginic acid encapsulated peptide. The hexapeptide GHRP-6 was administered through a plastic tube to the pharyngeal cavity to seven male tilapia with average body weight 89.09±8.38 g. Polymer beads without peptide were administered to seven male tilapia with average weight 89.86±13.54 g as a control group. The treatment was performed twice a week at 0.14 μg/gbw. (FIG. 4)

tilapia [3] = experiment: Weigh of tilapia treated with GHRP-6 by immersion; format: in vivo, Oreochromis aureus; details: for Mean weigh ± DS: once a week for 45 days
Protocol: (§3) Tilapias (Oreochromis aureus) of 1.5 g of mean weigh were treated by immersion with two different doses of GHRP-6 (10 μg/100 ml and 100 μg/100 ml). A similar control group was treated with physiological solution.
(§4) In the experiment was measured the weigh (Table 1), biochemical blood parameters (Table 2), number of parasite in gill (Trichodinicos (Table 3) y Helmintos mongeneos (Table 4)) and humidity and protein concentration in muscle
(§5) Fifteen animals per group (3×) with mean weigh of 1 g were selected for the assay. In 9 tank of 40 liters were developed the experiment. One a week application was done for 45 days.
(§6) • Group I 10 μg/100 ml (Treatment 1) • Group II 100 μg/100 ml (Treatment 2) • Group III Control (Physiological solution)

protozoo Trichodina sp. = experiment: Invasion intensity and extension of Trichodina sp. in tilapia treated by immersion; format: in vivo
Protocol: as §3, §4, §5, §6

Helmintos monogeneos = experiment: Invasion intensity and extension of Helmintos monogeneos in the gill of tilapia treated by immersion; format: in vivo; details: for I: Invasion intensity: in the gill per fish
Protocol: as §3, §4, §5, §6

tilapia [4] = experiment: Humidity and protein concentration in muscle of tilapia treated by immersion; format: in vivo, Oreochromis aureus
Protocol: as §3, §4, §5, §6

[5] = test system: shrimp Litopenaeus schmitti larvae; experiment: Growth promoting activity in shrimp larvae treated by immersion; format: in vivo
Protocol: Three different doses of GHRP-6 were applied by immersion to groups or shrimp larvae. The application was made each three days. Four applications were made for each group, including one control group receiving bovine serum albumin (BSA). The treatment was made per 1 hour to a concentration of GHRP-6 per liter of seawater as follow: • Group 1: 0.001 mg/L • Group 2: 0.01 mg/L • Group 3: 0.1 mg/L • Group 4: 1 mg of BSA/L

[6] = test system: larvae shrimp Litopeneaus schmitti; experiment: Shrimp larvae treated by immersion in production conditions; format: in vivo, Litopenaeus schmitti; details: production condition, vs non-treated group
Text: FIG. 8. Growth rate of larvae shrimp Litopeneaus schmitti in production conditions treated with GHRP-6 by immersion. The experiment was follow by six week. ***t-test p<0.001. Bars indicate standard error
In production condition the survival rate of the larvae was increased in 20% in the group treated with the GHRP-6 in comparison with the non-treated group. […] On the other hand the uniformity of the animals was higher in the group treated with the hexapeptide and the variation coefficient was lower in weigh and size (FIG. 8).

[7] = Grupo I, immersion 10 μg/100 mL
[8] = Grupo II, immersion 100 μg/100 mL
[9] = comparison II-III (100 μg/100 mL vs saline), significant
[10] = comparison III-I (saline vs 10 μg/100 mL), significant
[11] = comparison III-I (saline vs 10 μg/100 mL)
[12] = 0.1 mg/L immersion, statistically significant
[13] = 0.1 mg/L, four 1 hour immersions, each three days, vs BSA control

His-D-Trp-Ala-Trp-D-Phe-Lys-NH2 (H[dW]AW[dF]K-NH2) [GHRP-6, known GH releasing hexapeptide (GH secretagogue), bought from BACHEM]
serum GH levels (serum GH): increased
level of hepatic IGF mRNA (tilapia IGF mRNA; 30 min after intraperitoneal injection): increased significantly
level of hepatic IGF mRNA (tilapia IGF mRNA; six hours after intraperitoneal injection): backing to the normal value
growth (increase in growth rate) vs control (juvenile tilapia [1]): significantly stimulated growth
body weight gain, encapsulated vs non encapsulated orally intubated treatment (juvenile tilapia [2]; comparison between both oral treatments, P<0.05): higher body weight gain
body weight to the end of the treatment vs control (juvenile tilapia [2]; orally intubated encapsulated peptide): statistically differences in the body weight
Mean weigh ± DS (tilapia [3]; [7]): 4.56 ± 1.07 g
Mean weigh ± DS (tilapia [3]; [8]): 4.54 ± 1.38 g
Statistically difference, mean weigh (tilapia [3]; comparison I-II (10 vs 100 μg/100 mL)): 0.01454
Statistically difference, mean weigh (tilapia [3]; [9]): 1.072*
Statistically difference, mean weigh (tilapia [3]; [10]): 1.086*
E: Invasion extension (protozoo Trichodina sp.; [7]): 100%
I: Invasion intensity (protozoo Trichodina sp.; [7]): 7.73
E: Invasion extension (protozoo Trichodina sp.; [8]): 84.6%
I: Invasion intensity (protozoo Trichodina sp.; [8]): 2.80
Statistically difference, Trichodina sp. invasion (protozoo Trichodina sp.; comparison I-II): (4.42)
Statistically difference, Trichodina sp. invasion (protozoo Trichodina sp.; [9]): (5.84)*
Statistically difference, Trichodina sp. invasion (protozoo Trichodina sp.; [11]): (1.42)
E: Invasion extension (Helmintos monogeneos; [7]): 34.7%
I: Invasion intensity (Helmintos monogeneos; [7]): 0.39
E: Invasion extension (Helmintos monogeneos; [8]): 50%
I: Invasion intensity (Helmintos monogeneos; [8]): 0.66
Statistically difference, Helmintos monogeneos invasion (Helmintos monogeneos; comparison I-II): (0.304)
Statistically difference, Helmintos monogeneos invasion (Helmintos monogeneos; comparison II-III (100 μg/100 mL vs saline)): (0.521)
Statistically difference, Helmintos monogeneos invasion (Helmintos monogeneos; [10]): (0.826)*
Mean humidity ± SD in muscle (tilapia [4]; [7]): 82.96 ± 3.63%
Mean humidity ± SD in muscle (tilapia [4]; [8]): 83.5 ± 3.31%
Statistically difference, humidity in muscle (tilapia [4]; comparison I-II): (0.791)
Statistically difference, protein concentration (tilapia [4]; comparison I-II, significant): (1.160)*
Statistically difference, humidity in muscle (tilapia [4]; [9]): (2.666)*
Statistically difference, protein concentration (tilapia [4]; [9]): (1.38)*
Statistically difference, humidity in muscle (tilapia [4]; [11]): (3.458)
Statistically difference, protein concentration (tilapia [4]; [10]): (2.64)*
number of bone rostral [5, 12]: increase
number of gill ramifications [5, 12]: increase
increase of mean size [5, 13]: 26%
increase of mean weigh [5, 13]: 153%
relation Protein/DNA in muscle ([5]; all treated animals vs control): increased
relation RNA/DNA in muscle ([5]; all treated animals vs control): increased
water content in the muscle ([5]; all treated animals vs control): lower water content in the muscle
increase of size [6]: 37%
increase of survival rate of the larvae [6]: 20%
increase of weigh [6]: 115%
uniformity of the animals [6]: higher
variation coefficient in weigh and size [6]: lower
